Patent US11365188B2, “JAK inhibitors” (priority 2018, dated 2022)

Target: JAK1 (Homo sapiens, UniProt P23458)
Test: JAK Kinase Assay (JAK1, Caliper EZ Reader, fluoresceinated peptide)
Format: biochemical
Details: ATP 76.5 μM; JAK1 10 nM; 120 minutes at room temperature; read-out: JAK1 inhibition
Experimental: JAK Kinase Assay 384-well plates in the left foot butoxy measured progress. The final assay volume was 25 μL, 250 nL 100× compounds, 10 μL enzyme mix and 15 μL substrate mix (fluoresceinated peptide and ATP) in assay buffer (20 mM HEPES (pH 7.5), 10 mM MgCl2, […], 0.5 mM EGTA and 2 mM DTT) prepared as test compound. By mixing the JAK1 with substrates and test compounds to start the reaction. There action mixture was incubated for 120 minutes at room temperature, then added 30 μL stop buffer for each sample to terminate the reaction with 50 mM EDTA. After termination of the kinase reaction, the proportion of phosphorylated product was determined as a fraction of total peptide substrate using Caliper EZ Reader II. Inhibition data were calculated by comparison with 100% of the reaction mixture without enzyme inhibition and vehicle-only reaction mixture billion % inhibition compared. The final concentration of reagents in the assays is: ATP, 76.5 μM; JAK1 fluorescent peptide (5-FAM-EEPLYWSFPAKKK-CONH2), 3 μM; JAK1, 10 nM, and DMSO, 1%. Dose response curve were generated to determine the concentration required for IC50 of JAK activity.

Sequence of JAK1 (P23458 whole entry, species assumed): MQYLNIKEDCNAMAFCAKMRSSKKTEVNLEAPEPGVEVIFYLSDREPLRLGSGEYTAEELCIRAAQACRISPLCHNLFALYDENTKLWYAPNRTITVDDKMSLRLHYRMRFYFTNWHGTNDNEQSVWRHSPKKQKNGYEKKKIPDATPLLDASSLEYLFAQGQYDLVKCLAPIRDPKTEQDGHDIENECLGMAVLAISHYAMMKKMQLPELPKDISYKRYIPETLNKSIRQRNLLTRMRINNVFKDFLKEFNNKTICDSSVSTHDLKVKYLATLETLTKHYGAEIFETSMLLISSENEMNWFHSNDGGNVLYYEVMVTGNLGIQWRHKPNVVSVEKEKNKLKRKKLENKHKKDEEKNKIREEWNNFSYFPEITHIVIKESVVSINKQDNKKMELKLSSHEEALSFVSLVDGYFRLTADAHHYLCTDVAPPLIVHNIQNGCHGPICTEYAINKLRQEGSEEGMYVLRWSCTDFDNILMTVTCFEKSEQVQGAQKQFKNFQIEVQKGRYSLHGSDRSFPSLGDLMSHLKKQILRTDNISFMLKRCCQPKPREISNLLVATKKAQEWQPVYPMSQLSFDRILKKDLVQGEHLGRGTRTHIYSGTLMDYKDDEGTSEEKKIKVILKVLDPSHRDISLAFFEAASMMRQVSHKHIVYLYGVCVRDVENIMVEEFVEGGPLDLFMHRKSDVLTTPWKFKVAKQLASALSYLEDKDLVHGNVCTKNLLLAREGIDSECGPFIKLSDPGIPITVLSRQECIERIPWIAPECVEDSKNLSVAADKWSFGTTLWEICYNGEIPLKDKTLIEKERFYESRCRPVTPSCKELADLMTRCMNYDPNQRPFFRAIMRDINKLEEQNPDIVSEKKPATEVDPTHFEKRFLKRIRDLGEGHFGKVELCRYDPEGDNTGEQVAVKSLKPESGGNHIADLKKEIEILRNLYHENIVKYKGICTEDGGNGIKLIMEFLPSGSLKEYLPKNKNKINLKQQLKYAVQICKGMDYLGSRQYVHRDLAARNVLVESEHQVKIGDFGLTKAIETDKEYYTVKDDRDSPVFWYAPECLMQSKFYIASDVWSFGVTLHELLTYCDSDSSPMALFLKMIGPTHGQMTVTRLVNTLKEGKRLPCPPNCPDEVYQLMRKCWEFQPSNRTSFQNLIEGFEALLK

Row | IC50 | Structure (SMILES)
1 | 10 to 100 nM | COc1ccc(NC(=O)N2CCC3(CCC(N(C)c4ncnc5[nH]ccc45)CC3)CC2)nc1 [Compound 130, N-(5-methoxypyridin-2-yl)-9-(methyl(7H-pyrrolo[2,3-d]pyrimidin-4-yl)amino)-3-azaspiro[5.5]undecane-3-carboxamide]
2 | ≤ 10 nM | CN(c1ncnc2[nH]ccc12)C1CC2(C1)CN(C(=O)c1c(F)cc(C#N)cc1F)C2 [Compound 56, 3,5-difluoro-4-(6-(methyl(7H-pyrrolo[2,3-d]pyrimidin-4-yl)amino)-2-azaspiro[3.3]heptane-2-carbonyl)benzonitrile]
3 | ≤ 10 nM | CN(c1ncnc2[nH]ccc12)C1CCC2(CC1)CCN(C(=O)Nc1cccc(C#N)c1)CC2 [Compound 122, N-(3-cyanophenyl)-9-(methyl(7H-pyrrolo[2,3-d]pyrimidin-4-yl)amino)-3-azaspiro[5.5]undecane-3-carboxamide]
4 | 10 to 100 nM | CN(c1ncnc2[nH]ccc12)C1CCC2(CC1)CCN(C(=O)COc1cccc(C#N)c1)CC2 [Compound 116, 3-(2-(9-(methyl(7H-pyrrolo[2,3-d]pyrimidin-4-yl)amino)-3-azaspiro[5.5]undecan-3-yl)-2-oxoethoxy)benzonitrile]
5 | 10 to 100 nM | CN(c1ncnc2[nH]ccc12)C1CCC2(CC1)CCN(C(=O)COc1ccc(C#N)c(F)c1F)CC2 [Compound 118, 2,3-difluoro-4-(2-(9-(methyl(7H-pyrrolo[2,3-d]pyrimidin-4-yl)amino)-3-azaspiro[5.5]undecan-3-yl)-2-oxoethoxy)benzonitrile]
6 | ≤ 10 nM | COc1nsc(NC(=O)N2CC3(CC(N(C)c4ncnc5[nH]ccc45)C3)C2)n1 [Compound 70, N-(3-methoxy-1,2,4-thiadiazol-5-yl)-6-(methyl(7H-pyrrolo[2,3-d]pyrimidin-4-yl)amino)-2-azaspiro[3.3]heptane-2-carboxamide]
7 | ≤ 10 nM | CN(c1ncnc2[nH]ccc12)C1CCC2(CC1)CCN(C(=O)COc1cc(F)cc(C#N)c1)CC2 [Compound 114, 3-fluoro-5-(2-(9-(methyl(7H-pyrrolo[2,3-d]pyrimidin-4-yl)amino)-3-azaspiro[5.5]undecan-3-yl)-2-oxoethoxy)benzonitrile]
8 | ≤ 10 nM | CN(c1ncnc2[nH]ccc12)C1CC2(C1)CN(C(=O)c1ccc(S(N)(=O)=O)cc1)C2 [Compound 71, 4-(6-(methyl(7H-pyrrolo[2,3-d]pyrimidin-4-yl)amino)-2-azaspiro[3.3]heptane-2-carbonyl)benzenesulfonamide]
9 | 10 to 100 nM | CNC(=O)N1CCC2(CCC(N(C)c3ncnc4[nH]ccc34)CC2)CC1 [Compound 110, N-methyl-9-(methyl(7H-pyrrolo[2,3-d]pyrimidin-4-yl)amino)-3-azaspiro[5.5]undecane-3-carboxamide]
10 | ≤ 10 nM | CN(c1ncnc2[nH]ccc12)C1CCC2(CC1)CCN(C(=O)COc1ccccc1)CC2 [Compound 107, 1-(9-(methyl(7H-pyrrolo[2,3-d]pyrimidin-4-yl)amino)-3-azaspiro[5.5]undecan-3-yl)-2-phenoxyethan-1-one]
11 | 10 to 100 nM | COCC(=O)N1CCC2(CCC(N(C)c3ncnc4[nH]ccc34)CC2)CC1 [Compound 72, 2-methoxy-1-(9-(methyl(7H-pyrrolo[2,3-d]pyrimidin-4-yl)amino)-3-azaspiro[5.5]undecan-3-yl)ethan-1-one]
12 | 10 to 100 nM | COc1ccc(NC(=O)N2CCC3(CCC(N(C)c4ncnc5[nH]ccc45)CC3)CC2)cc1 [Compound 119, N-(4-methoxyphenyl)-9-(methyl(7H-pyrrolo[2,3-d]pyrimidin-4-yl)amino)-3-azaspiro[5.5]undecane-3-carboxamide]
13 | 10 to 100 nM | CN(c1ncnc2[nH]ccc12)C1CCC2(CC1)CCN(C(=O)NCC(F)(F)F)CC2 [Compound 109, 9-(methyl(7H-pyrrolo[2,3-d]pyrimidin-4-yl)amino)-N-(2,2,2-trifluoroethyl)-3-azaspiro[5.5]undecane-3-carboxamide]
14 | 10 to 100 nM | CN(c1ncnc2[nH]ccc12)C1CC2(C1)CN(C(=O)c1cc(F)c(C#N)c(F)c1)C2 [Compound 52, 2,6-difluoro-4-(6-(methyl(7H-pyrrolo[2,3-d]pyrimidin-4-yl)amino)-2-azaspiro[3.3]heptane-2-carbonyl)benzonitrile]
15 | ≤ 10 nM | CN(c1ncnc2[nH]ccc12)C1CCC2(CC1)CCN(C(=O)Nc1nccs1)CC2 [Compound 134, 9-(methyl(7H-pyrrolo[2,3-d]pyrimidin-4-yl)amino)-N-(thiazol-2-yl)-3-azaspiro[5.5]undecane-3-carboxamide]
16 | 10 to 100 nM | [2H]C([2H])([2H])N(c1ncnc2[nH]ccc12)C1CC2(C1)CN(C(=O)c1ccc(C#N)c(F)c1)C2 [Compound 65]
17 | ≤ 10 nM | [2H]C([2H])([2H])N(c1ncnc2[nH]ccc12)C1CC2(C1)CN(C(=O)c1ccc(C#N)c(F)c1F)C2 [Compound 67, 2,3-Difluoro-4-{6-[(methyl-d3)-(7H-pyrrolo[2,3-d]pyrimidin-4-yl)-amino]-2-aza-spiro[3.3]heptane-2-carbonyl}-benzonitrile]
18 | ≤ 10 nM | CN(c1ncnc2[nH]ccc12)C1CC2(C1)CN(C(=O)c1cc(C#N)cc(F)c1F)C2 [Compound 63, 3,4-Difluoro-5-{6-[methyl-(7H-pyrrolo[2,3-d]pyrimidin-4-yl)-amino]-2-aza-spiro[3.3]heptane-2-carbonyl}-benzonitrile]
19 | ≤ 10 nM | CN(c1ncnc2[nH]ccc12)C1CCC2(CC1)CCN(C(=O)COc1ccc(C#N)cc1)CC2 [Compound 115, 4-(2-(9-(methyl(7H-pyrrolo[2,3-d]pyrimidin-4-yl)amino)-3-azaspiro[5.5]undecan-3-yl)-2-oxoethoxy)benzonitrile]
20 | 10 to 100 nM | COc1cccc(NC(=O)N2CCC3(CCC(N(C)c4ncnc5[nH]ccc45)CC3)CC2)n1 [Compound 124, N-(6-methoxpyridin-2-yl)-9-(methyl(7H-pyrrolo[2,3-d]pyrimidin-4-yl)amino)-3-azaspiro[5.5]undecane-3-carboxamide]
21 | 10 to 100 nM | CN(c1ncnc2[nH]ccc12)C1CCC2(CC1)CCN(C(=O)COc1ccc(C#N)c(F)c1)CC2 [Compound 117, 2-fluoro-4-(2-(9-(methyl(7H-pyrrolo[2,3-d]pyrimidin-4-yl)amino)-3-azaspiro[5.5]undecan-3-yl)-2-oxoethoxy)benzonitrile]
22 | 10 to 100 nM | COc1cnc(NC(=O)N2CCC3(CCC(N(C)c4ncnc5[nH]ccc45)CC3)CC2)cn1 [Compound 129, N-(5-methoxypyrazin-2-yl)-9-(methyl(7H-pyrrolo[2,3-d]pyrimidin-4-yl)amino)-3-azaspiro[5.5]undecane-3-carboxamide]
23 | ≤ 10 nM | COc1cccc(NC(=O)N2CCC3(CCC(N(C)c4ncnc5[nH]ccc45)CC3)CC2)c1 [Compound 120, N-(3-methoxyphenyl)-9-(methyl(7H-pyrrolo[2,3-d]pyrimidin-4-yl)amino)-3-azaspiro[5.5]undecane-3-carboxamide]
24 | 1000 to 10000 nM | CN(c1ncnc2[nH]ccc12)C1CCC2(CC1)CCN(C(=O)OC(C)(C)C)CC2 [Compound 106, tert-butyl 9-(methyl(7H-pyrrolo[2,3-d]pyrimidin-4-yl)amino)-3-azaspiro[5.5]undecane-3-carboxylate]
25 | 100 to 1000 nM | CN(c1ncnc2[nH]ccc12)C1CCC2(CC1)CCN(C(=O)Nc1ncc(Cl)s1)CC2 [Compound 132, N-(5-chlorothiazol-2-yl)-9-(methyl(7H-pyrrolo[2,3-d]pyrimidin-4-yl)amino)-3-azaspiro[5.5]undecane-3-carboxamide]
